Assay results taken from patent US11439148B2, “Pyrimidine derivatives” (SYNGENTA PARTICIPATIONS AG, priority 2017, dated 2022).
Several values for one entry are separate records, joined by “and”; a condition that tells them apart may be missing. Equal entries are not always repeated.

What was measured:
Assay type in all cases: in vivo
[1] = system: Brachiaria platyphylla (BRAPP); assay: Adjuvant efficacy with mesotrione, glasshouse spray test; conditions: mesotrione SC, mean over 30 and 60 g/ha and 3 replicates; adjuvant 0.2% v/v (none in No Adjuvant rows); % leaf area killed, 21 days after application; Tests 1-3 separate runs
Procedure: (§1) The efficacy of adjuvants 1-12 as an adjuvant for the herbicide mesotrione was tested in a glasshouse against four weed species sown into standard soil in pots and cultivated under controlled conditions in a glasshouse (at 24/18° C. day/night; 16 hours light; 65% humidity). Mesotrione was added to the spray tank as a standard SC (suspension concentrate) formulation.
(§2) The spray tests were also carried out using mesotrione in conjunction with adjuvants 1-12. The adjuvants were added to the spray solution at a rate of 0.2% v/v unless otherwise stated. All spray solutions also contained 10% w/w of iso-Propanol. The weed species and their BBCH growth stage at spraying were Brachiaria platyphylla (BRAPP; growth stage 13-14) or Brachiaria plantaginea (BRAPL; growth stage 13-14), Commelina benghalensis (COMBE; growth stage 13), Digitaria sanguinalis (DIGSA; growth stage 14), and Polygonum convolvulus (POLCO; growth stage 13-14). Each spray test was replicated three times.
(§3) The test plants were then grown in a glasshouse under controlled conditions (at 24/18° C. day/night; 16 hours light; 65% humidity) and watered twice a day. The efficacy of the herbicide was assessed visually and expressed as a percentage of the leaf area killed. Samples were assessed at a time period of 21 days following application. The results shown in Table 3 below are mean averages over the two rates of mesotrione and the three replicates.

[2] = system: Alopecurus myosuroides (ALOMY); assay: Adjuvant efficacy with pinoxaden, glasshouse spray test; conditions: pinoxaden EC, mean over 7.5 and 15 g/ha and 3 replicates; adjuvant 0.2% v/v (none in No Adjuvant rows); % leaf area killed, 21 days after application; Tests 1-4 separate runs
Procedure: as §1, with “adjuvants” for “an adjuvant”, “pinoxaden were” for “mesotrione was”, “species,” for “species”, “20/16°” for “24/18°”, “Pinoxaden” for “Mesotrione”, “EC (emulsifiable” for “SC (suspension”
(§4) The spray tests were also carried out using pinoxaden in conjunction with adjuvants 1-12. The adjuvants were added to the spray solution at a rate of 0.2% v/v unless otherwise stated. All spray solutions also contained 10% w/w of iso-Propanol. The weed species and their BBCH growth stage at spraying were Avena fatua (AVEFA; growth stage 12), Lolium perenne (LOLPE; growth stage 13), Alopecurus myosuroides (ALOMY; growth stage 13), and Setaria viridis (SETVI; growth stage 13-14). Each spray test was replicated three times. The test plants were then grown in a glasshouse under controlled conditions (at 20/16° C. day/night; 16 hours light; 65% humidity) and watered twice a day. The efficacy of the herbicide was assessed visually and expressed as a percentage of the leaf area killed. Samples were assessed at a time period of 21 days following application. The results shown in Table 4 below are mean averages over the two rates of pinoxaden, and the three replicates.

Lolium perenne (LOLPE) = assay: as above; conditions: pinoxaden EC, mean over 7.5 and 15 g/ha and 3 replicates; adjuvant 0.2% v/v (none in No Adjuvant rows); % leaf area killed, 21 days after application; Tests 1-4 separate runs
Procedure: as §1, with “adjuvants” for “an adjuvant”, “pinoxaden were” for “mesotrione was”, “species,” for “species”, “20/16°” for “24/18°”, “Pinoxaden” for “Mesotrione”, “EC (emulsifiable” for “SC (suspension”
as §4

Setaria viridis (SETVI) [3] = assay: as above; conditions: pinoxaden EC, mean over 7.5 and 15 g/ha and 3 replicates; adjuvant 0.2% v/v (none in No Adjuvant rows); % leaf area killed, 21 days after application; Tests 1-4 separate runs
Procedure: as §1, with “adjuvants” for “an adjuvant”, “pinoxaden were” for “mesotrione was”, “species,” for “species”, “20/16°” for “24/18°”, “Pinoxaden” for “Mesotrione”, “EC (emulsifiable” for “SC (suspension”
as §4

Avena fatua (AVEFA) = assay: as above; conditions: pinoxaden EC, mean over 7.5 and 15 g/ha and 3 replicates; adjuvant 0.2% v/v (none in No Adjuvant rows); % leaf area killed, 21 days after application; Tests 1-4 separate runs
Procedure: as §1, with “adjuvants” for “an adjuvant”, “pinoxaden were” for “mesotrione was”, “species,” for “species”, “20/16°” for “24/18°”, “Pinoxaden” for “Mesotrione”, “EC (emulsifiable” for “SC (suspension”
as §4

[4] = system: weed species BRAPP, COMBE, DIGSA, POLCO; assay: Adjuvant efficacy with mesotrione, glasshouse spray test, average over all species (BRAPP set); conditions: mesotrione SC, mean over 30 and 60 g/ha; adjuvant 0.2% v/v (none in No Adjuvant rows); 21 days; Tests 1-3, species set with BRAPP (COMBE only in Test 2)
Procedure: as §1, §2, §3

[5] = system: Digitaria sanguinalis (DIGSA); assay: Adjuvant efficacy with nicosulfuron, glasshouse spray test; conditions: nicosulfuron WG, mean over 15 and 60 g/ha and 3 replicates; adjuvant 0.2% v/v (none in No Adjuvant rows); % leaf area killed, 21 days after application; Tests 1-4 separate runs
Procedure: as §1, with “adjuvants” for “an adjuvant”, “nicosulfuron were” for “mesotrione was”, “Nicosulfuron” for “Mesotrione”, “WG (water dispersible granule)” for “SC (suspension concentrate)”
(§5) The spray tests were also carried out using nicosulfuron in conjunction with adjuvants 1-12. The adjuvant was added to the spray solution at a rate of 0.2% v/v. All spray solutions also contained 12.5% v/v of iso-Propanol. The weed species and their BBCH growth stage at spraying were Abutilon theophrasti (ABUTH; growth stage 13), Chenopodium album (CHEAL; growth stage 13-14), Digitaria sanguinalis (DIGSA; growth stage 11), and Setaria viridis (SETVI; growth stage 13). Each spray test was replicated three times. The test plants were then grown in a glasshouse under controlled conditions (at 24/18° C. day/night; 16 hours light; 65% humidity) and watered twice a day. The efficacy of the herbicide was assessed visually and expressed as a percentage of the leaf area killed. Samples were assessed at a time period of 21 days following application. The results shown in Table 1 below are mean averages over the two rates of nicosulfuron, and the three replicates.

[6] = system: Abutilon theophrasti (ABUTH); assay: as above; conditions: nicosulfuron WG, mean over 15 and 60 g/ha and 3 replicates; adjuvant 0.2% v/v (none in No Adjuvant rows); % leaf area killed, 21 days after application; Tests 1-4 separate runs
Procedure: as §1, with “adjuvants” for “an adjuvant”, “nicosulfuron were” for “mesotrione was”, “Nicosulfuron” for “Mesotrione”, “WG (water dispersible granule)” for “SC (suspension concentrate)”
as §5

[7] = system: Chenopodium album (CHEAL); assay: as above; conditions: nicosulfuron WG, mean over 15 and 60 g/ha and 3 replicates; adjuvant 0.2% v/v (none in No Adjuvant rows); % leaf area killed, 21 days after application; Tests 1-4 separate runs
Procedure: as §1, with “adjuvants” for “an adjuvant”, “nicosulfuron were” for “mesotrione was”, “Nicosulfuron” for “Mesotrione”, “WG (water dispersible granule)” for “SC (suspension concentrate)”
as §5

Setaria viridis (SETVI) [8] = assay: as above; conditions: nicosulfuron WG, mean over 15 and 60 g/ha and 3 replicates; adjuvant 0.2% v/v (none in No Adjuvant rows); % leaf area killed, 21 days after application; Tests 1-4 separate runs
Procedure: as §1, with “adjuvants” for “an adjuvant”, “nicosulfuron were” for “mesotrione was”, “Nicosulfuron” for “Mesotrione”, “WG (water dispersible granule)” for “SC (suspension concentrate)”
as §5

Septoria tritici [9] = assay: Adjuvant efficacy with isopyrazam on inoculated wheat plants; conditions: isopyrazam SC, mean over 6.5, 16, 40 and 100 mg/l and 4 replicates, sprayed 4 days after inoculation, percentage of leaf area infected 17-18 days after infection, Tests 1-3 separate runs
Procedure: Adjuvants 6, 7, 8 and 10 were tested as adjuvants for agrochemical compositions comprising isopyrazam.
Two week old wheat plants were inoculated with the fungus Septoria tritici. […] All spray solutions also contained 10% v/v of iso-Propanol. The leaves of the plants were assessed visually 17-18 days after infection and the damage was expressed as the percentage of the leaf area infected. Each spray test was replicated four times across the four application rates.
The results shown in Table 6 below are mean averages over the four rates of isopyrazam and the four replicates.

Septoria tritici [10] = assay: Adjuvant efficacy with epoxiconazole on inoculated wheat plants; conditions: epoxiconazole SC 1.5, 4, 8.5 and 20 mg/l, 4 replicates, adjuvant 0.1% v/v (none in No Adjuvant rows), sprayed 4 days after inoculation, percentage of leaf area infected 17-18 days after infection, Tests 1-3 separate runs
Procedure: Adjuvants 6, 7, 8 and 10 were tested as adjuvants for agrochemical compositions comprising epoxiconazole.
Two week old wheat plants were inoculated with the fungus Septoria tritici. […] All spray solutions also contained 10% v/v of iso-Propanol. The leaves of the plants were assessed visually 17-18 days after infection and the damage was expressed as the percentage of the leaf area infected.

Structure (SMILES) | Mean % Herbicidal Activity BRAPP [1] [%] | Mean % Herbicidal Activity ALOMY [2] | Mean % Herbicidal Activity LOLPE (Lolium perenne (LOLPE)) | Mean % Herbicidal Activity SETVI (Setaria viridis (SETVI) [3]) | Mean % Herbicidal Activity AVEFA (Avena fatua (AVEFA)) | Mean % Herbicidal Activity Average over all Species [4] [%] | Mean % Herbicidal Activity DIGSA [5] | Mean % Herbicidal Activity ABUTH [6] | Mean % Herbicidal Activity CHEAL [7] | Mean % Herbicidal Activity SETVI (Setaria viridis (SETVI) [8]) | Disease Damage Mean (Septoria tritici [9]) | Disease Damage Mean (Septoria tritici [10])
CCCCCCOc1cc(OCCOCCOC)ncn1 [Adjuvant 1] | 53 | 20% | 41% | 82% | 78% | 72 | 88% | 64% | 84% | 93% |  | 
CCCCCCOc1cc(OCCOCCOCCOCCOCCOCCOCCOCCOCCOCCOC)ncn1 [Adjuvant 2] | 52 | 16% | 28% | 87% | 56% | 75 | 89% | 61% | 80% | 97% |  | 
CCCCCCOc1cc(OCCOCCOCCOCCOCCOCCOCCOCCOCCOCCOCCOCCOCCOCCOCCOCCOCCOCCOCCOCCOC)ncn1 [Adjuvant 3] | 38 | 15% | 22% | 88% | 52% | 71 | 88% | 49% | 76% | 93% |  | 
CCCCCCCCCOc1cc(OCCOCCOCCOCCOCCOCCOCCOC)ncn1 [Adjuvant 4] | 43 | 18% | 30% | 82% | 78% | 73 | 70% | 48% | 78% | 94% |  | 
CCCCCCCCCOc1cc(OCCOCCOCCOCCOCCOCCOCCOCCOCCOCCOC)ncn1 [Adjuvant 5] | 48 | 10% | 21% | 63% | 69% | 71 | 49% | 49% | 63% | 91% |  | 
CCCCCCCCCCCCOc1cc(OCCOCCOCCOCCOCCOCCOCCOC)ncn1 [Adjuvant 6] | 53 | 23% | 62% | 87% | 82% | 76 | 74% | 38% | 83% | 91% | 7% and 9% and 12% | 42% and 10% and 21%
CCCCCCCCCCCCOc1cc(OCCOCCOCCOCCOCCOCCOCCOCCOCCOCCOC)ncn1 [Adjuvant 7] | 68 | 63% | 78% | 97% | 98% | 73 | 84% | 59% | 86% | 96% | 12% | 12%
CCCCCCCCCCCCCCCCOc1cc(OCCOCCOCCOCCOCCOCCOCCOCCOCCOCCOC)ncn1 [Adjuvant 8] |  | 2% and 15% and 22% | 87% and 42% and 73% | 94% and 88% and 89% | 94% and 78% and 84% |  | 87% and 93% and 89% | 53% and 66% and 74% | 85% (2×) and 83% | 96% (2×) and 95% | 20% | 36%
CCCCCCCCC=CCCCCCCCCOc1cc(OCCOCCOC)ncn1 [Adjuvant 9] | 69 | 17% | 40% | 91% | 83% | 81 | 88% | 57% | 82% | 95% |  | 
CCCCCCCCC=CCCCCCCCCOc1cc(OCCOCCOCCOCCOCCOCCOCCOCCOCCOCCOCCOCCOCCOCCOCCOCCOCCOCCOCCOCCOC)ncn1 [Adjuvant 11] | 58 | 11% | 15% | 84% | 41% | 78 | 88% | 64% | 82% | 94% |  | 
CCCCCCCCCCCCOc1cc(OCC(C)OCC(C)OCC(C)OC)ncn1 (stereo not drawn) [Adjuvant 12] | 69 | 23% | 76% | 94% | 87% | 84 | 93% | 66% | 83% | 96% |  | 
